Experimental findings from patent publication US20250066303A1, “ARYL TETRAHYDROPYRIDINE DERIVATIVE OR SALT THEREOF, PEST CONTROL AGENT CONTAINING SAME, AND METHOD FOR USE THEREOF” (NIHON NOHYAKU CO., LTD., priority 2021, published 2025) are described below.

SMILES strings stand for the structures.

One data set deals with Plutella xylostella. The experiment in a line: Insecticidal test against Plutella xylostella. As to conditions: 500 ppm drug solution, Chinese cabbage seedlings with eggs immersed about 30 sec, six days after immersion, 25° C.
Another data set relates to Laodelphax striatellus. Put plainly: Insecticidal test against Laodelphax striatellus. As to conditions: 500 ppm drug solution, rice seedlings immersed 30 seconds, three-instar insects, eight days after inoculation.
Data set [1] deals with Frankliniella occidentalis. Put plainly: Insecticidal test against Frankliniella occidentalis. As to conditions: 500 ppm drug solution sprayed on hatched larvae on Phaseolus vulgaris leaf pieces, four days after treatment.
Excerpt: Insecticidal Test Against Frankliniella occidentalis
Female adults of Frankliniella occidentalis were inoculated onto Phaseolus vulgaris leaf pieces, and after allowing them to lay eggs for one day, the female adults were removed. […] Four days after the treatment, the number of surviving larvae of this species larvae was examined. […] In duplicate.

Excerpt for Plutella xylostella: Insecticidal Test Against Plutella xylostella
Six days after the immersion in the drug solution, the number of surviving insects was examined. […] In triplicate using 10 per plot.

As for `CCC1(c2ccc(C(F)(F)F)cc2)CN(C)C(=O)C(C(=O)Nc2ccc(S(C)(=O)=O)cc2)=C1O` (stereo not shown) [3-35], the “corrected mortality, rating of assessment” value (from here on “corrected mortality, rating”) with Plutella xylostella and with Laodelphax striatellus was “D or higher” in each case.
With `CCC1(c2ccc(C(F)(F)F)cc2)CN(C)C(=O)C(C(=O)Nc2ccc(C)cc2)=C1O` (stereo not shown) [3-34], the “corrected mortality, rating” value in the data set with Plutella xylostella is on record as “D or higher”.
In the case of `C#CCN1C(=O)C(C(=O)Nc2ccn(C)n2)=C(O)CC1c1ccc(C(F)(F)F)nc1` (stereo not shown) [1-34], the “corrected mortality, rating” value in the data set on Plutella xylostella and in the data set on Laodelphax striatellus was “D or higher” each time.
`CN1C(=O)C(C(=O)Nc2ccc(F)cn2)=C(O)CC1c1ccc(C(F)(F)F)nc1` (stereo not shown) [1-13]: the “corrected mortality, rating” value in the data set on Plutella xylostella and in the data set with Laodelphax striatellus was “D or higher” each time.
Consider `CCC1(c2ccc(C(F)(F)F)cc2)CN(C)C(=O)C(C(=S)Nc2ccc(F)cn2)=C1O` (stereo not shown) [3-23], for which the “corrected mortality, rating” value in the data set with Plutella xylostella and in the data set on Laodelphax striatellus was “D or higher” throughout.
Consider `C#CCN1C(=O)C(C(=O)Nc2ccc(F)cc2)=C(O)CC1c1ccc(SC)cc1` (stereo not shown) [1-44], for which, in the data set on Plutella xylostella, the “corrected mortality, rating” value is listed as “D or higher”.
In the case of `C#CCN1C(=O)C(C(=O)Nc2ccc(F)cn2)=C(O)CC1c1ccc([S+](C)[O-])cc1` (stereo not shown) [1-38], the “corrected mortality, rating” value in the data set with Plutella xylostella and in the data set with Laodelphax striatellus was “D or higher” each time.
Consider `CCC1(c2ccc(C(F)(F)F)cc2)CN(C)C(=O)C(C(=O)Nc2ccc(OC)cc2)=C1O` (stereo not shown) [3-31], for which the “corrected mortality, rating” value in the data set on Plutella xylostella and with Laodelphax striatellus was “D or higher” throughout.
As for `C#CCN1C(=O)C(C(=O)Nc2ccc(F)cn2)=C(O)CC1c1ccc(Cl)nc1` (stereo not shown) [1-36], the “corrected mortality, rating” value (in the data set with Plutella xylostella; in the data set with Laodelphax striatellus; in data set [1]) was “D or higher” each time.
As for `CN1C(=O)C(C(=O)Nc2ccc(Cl)cc2)=C(O)CC1c1ccc(C(F)(F)F)cc1` (stereo not shown) [1-4], the “corrected mortality, rating” value in the data set with Plutella xylostella and with Laodelphax striatellus was “D or higher” each time.
In the case of `CN1C(=O)C(C(=S)Nc2ccc(F)cc2)=C(O)CC1c1ccc(C(F)(F)F)cc1` (stereo not shown) [1-8], the “corrected mortality, rating” value (with Plutella xylostella; in data set [1]) was “D or higher” throughout.
For `C[S+]([O-])C1=C(C(=O)Nc2ccc(F)cc2)C(=O)NC(c2ccc(C(F)(F)F)nc2)C1` (stereo not shown) [compound No. 1-30, N-(4-fluorophenyl)-4-(methylsulfinyl)-6-oxo-6′-(trifluoromethyl)-1,2,3,6-tetrahydro-[2,3′-bipyridine]-5-carboxamide], the “corrected mortality, rating” value (in the data set on Plutella xylostella; with Laodelphax striatellus; in data set [1]) was “D or higher” each time.
With `O=C1NCC(c2ccc(Cl)cc2)C(O)=C1C(=O)Nc1ccc(F)cc1` (stereo not shown) [3-10], the “corrected mortality, rating” value in the data set on Plutella xylostella is recorded as “D or higher”.
Same read-out and setting: under `CN1C(=O)C(C(=O)NCc2ccc(F)cc2)=C(O)CC1c1ccc(C(F)(F)F)cc1` (stereo not shown) [compound No. 1-3] stands “D or higher”; under `CCC1(c2ccc(C(F)(F)F)cc2)CN(C)C(=O)C(C(=O)Nc2ccc(C3CC3)cc2C)=C1O` (stereo not shown) [3-38], “D or higher”.
For `CCCN1C(=O)C(C(=O)Nc2ccc(F)cc2)=C(O)CC1c1ccc(C(F)(F)F)nc1` (stereo not shown) [1-32], the “corrected mortality, rating” value in the data set on Plutella xylostella and with Laodelphax striatellus was “D or higher” each time.
Take `CCC1(c2ccc(C(F)(F)F)cc2)CNC(=O)C(C(=O)Nc2ccc(F)cc2)=C1O` (stereo not shown) [3-24]: the “corrected mortality, rating” value in the data set with Plutella xylostella and with Laodelphax striatellus was “D or higher” in each case.
Consider `C#CCNC(=O)C1=C(O)CC(c2ccc(C(F)(F)F)cc2)N(C)C1=O` (stereo not shown) [1-27], for which, in the data set with Plutella xylostella, the “corrected mortality, rating” value was “D or higher”.
On to `C#CCN1C(=O)C(C(=O)Nc2ccc(S(C)(=O)=O)cc2)=C(O)CC1c1ccc(C(F)(F)F)nc1` (stereo not shown) [1-43], for which, in the data set with Laodelphax striatellus, the “corrected mortality, rating” value is “D or higher”.
For the molecule `CSC1=C(C(=O)Nc2ccc(F)cc2)C(=O)NC(c2ccc(C(F)(F)F)nc2)C1` (stereo not shown) [compound No. 1-29, N-(4-fluorophenyl)-4-(methylthio)-6-oxo-6′-(trifluoromethyl)-1,2,3,6-tetrahydro-[2,3′-bipyridine]-5-carboxamide], the “corrected mortality, rating” value in the data set on Plutella xylostella was “D or higher”.
The same measure, in the same setting: under `CN1C(=O)C(C(=O)Nc2ccc(C(F)(F)F)cc2)=C(O)CC1c1ccc(C(F)(F)F)cc1` (stereo not shown) [compound No. 1-1, 4-hydroxy-1-methyl-2-oxo-N, 6-bis(4-(trifluoromethyl)phenyl)-1,2,5,6-tetrahydropyridine-3-carboxamide] stands “D or higher”.
Turning to `CN1C(=O)C(C(=O)Nc2ccc(F)cc2)=C(O)CC1c1ccc(C(F)(F)F)nc1` (stereo not shown) [1-12], the “corrected mortality, rating” value in the data set on Plutella xylostella and in the data set with Laodelphax striatellus was “D or higher” in each case.
For the molecule `CN1C(=O)C(C(=O)Nc2ccc(SC(F)(F)F)cc2)=C(O)CC1c1ccc(C(F)(F)F)nc1` (stereo not shown) [1-49], in the data set on Plutella xylostella, the “corrected mortality, rating” value is recorded as “D or higher”.
On to `C#CCN1C(=O)C(C(=O)Nc2ccnc(F)c2)=C(O)CC1c1ccc(C(F)(F)F)nc1` (stereo not shown) [1-35], for which the “corrected mortality, rating” value in the data set on Plutella xylostella and in the data set on Laodelphax striatellus was “D or higher” throughout.
With `C#CCN1C(=O)C(C(=O)Nc2ccc(F)cn2)=C(O)CC1c1ccc(SC)cc1` (stereo not shown) [1-37], the “corrected mortality, rating” value with Plutella xylostella and in the data set with Laodelphax striatellus was “D or higher” each time.
Regarding `CCC1(c2ccc(C(F)(F)F)cc2)CN(C)C(=O)C(C(=O)NN2CCOCC2)=C1O` (stereo not shown) [3-27], the “corrected mortality, rating” value in the data set on Laodelphax striatellus is “D or higher”.
Consider `O=C(Nc1ccc(F)cc1)C1=C(S)CC(c2ccc(C(F)(F)F)nc2)NC1=O` (stereo not shown) [compound No. 1-28, N-(4-fluorophenyl)-4-mercapto-6-oxo-6′-(trifluoromethyl)-1,2,3,6-tetrahydro-[2,3′-bipyridine]-5-carboxamide], for which the “corrected mortality, rating” value (in the data set with Plutella xylostella; in the data set on Laodelphax striatellus; in data set [1]) was “D or higher” in each case.
For the molecule `CN1C(=O)C(C(=O)Nc2ccc(F)cn2)=C(O)CC1c1ccc(C(F)(F)F)cc1` (stereo not shown) [1-10], the “corrected mortality, rating” value with Plutella xylostella is reported as “D or higher”.
For `CN1C(=O)C(C(=O)Nc2ncc(F)cn2)=C(O)CC1c1ccc(C(F)(F)F)cc1` (stereo not shown) [1-15], the “corrected mortality, rating” value in the data set with Plutella xylostella is given as “D or higher”.
Consider `CN1C(=O)C(C(=S)Nc2ccc(F)cn2)=C(O)CC1c1ccc(C(F)(F)F)cc1` (stereo not shown) [1-11], for which, in the data set with Plutella xylostella, the “corrected mortality, rating” value was “D or higher”.
As to `O=C(Nc1ccc(F)cc1)C1=C(O)CC(c2ccc(C(F)(F)F)cc2)N(Cc2ccccc2)C1=O` (stereo not shown) [1-5], the “corrected mortality, rating” value (with Plutella xylostella; in data set [1]) was “D or higher” in each case.
Turning to `CCC1(c2ccc(C(F)(F)F)cc2)CN(C)C(=O)C(C(=O)Nc2ncc(F)cn2)=C1O` (stereo not shown) [3-26], the “corrected mortality, rating” value in the data set on Laodelphax striatellus is recorded as “D or higher”.
For the molecule `CN1C(=O)C(C(=O)Nc2ccc(NS(C)(=O)=O)cc2)=C(O)CC1c1ccc(C(F)(F)F)nc1` (stereo not shown) [1-60], the “corrected mortality, rating” value with Plutella xylostella is given as “D or higher”.
With `C#CCN1C(=O)C(C(=O)Nc2ccc([S+](C)[O-])cc2)=C(O)CC1c1ccc(C(F)(F)F)nc1` (stereo not shown) [1-42], the “corrected mortality, rating” value in the data set with Laodelphax striatellus is “D or higher”.
Regarding `C#CCN1C(=O)C(C(=O)Nc2cc(C)on2)=C(O)CC1c1ccc(C(F)(F)F)nc1` (stereo not shown) [1-33], the “corrected mortality, rating” value (in the data set with Plutella xylostella; with Laodelphax striatellus; in data set [1]) was “D or higher” in each case.
With `CN1CC(C)(c2ccc(C(F)(F)F)cc2)C(O)=C(C(=O)Nc2ccc(F)cc2)C1=O` (stereo not shown) [3-11], in the data set with Plutella xylostella, the “corrected mortality, rating” value is “D or higher”.
On the same count and under the same terms, with `CN1C(=O)C(C(=O)Nc2ccc(OC(F)(F)F)cc2)=C(O)CC1c1ccc(C(F)(F)F)cc1` (stereo not shown) [compound No. 1-2] the entry was “D or higher”.
Same read-out and setting: under `CN1CC(C)(c2ccc(C(F)(F)F)cc2)C(O)=C(C(=O)Nc2ccc(C(F)(F)F)cc2)C1=O` (stereo not shown) [3-12] stands “D or higher”.
As for `C#CCN1C(=O)C(C(=O)Nc2ccc(F)cn2)=C(O)CC1c1ccc(S(C)(=O)=O)cc1` (stereo not shown) [1-39], the “corrected mortality, rating” value in the data set on Plutella xylostella and in the data set on Laodelphax striatellus was “D or higher” throughout.
In the case of `C#CCN1C(=O)C(C(=O)Nc2ccc(SC)cc2)=C(O)CC1c1ccc(C(F)(F)F)nc1` (stereo not shown) [1-41], the “corrected mortality, rating” value in the data set on Laodelphax striatellus is “D or higher”.
Turning to `CCC1(c2ccc(C(F)(F)F)cc2)CN(C)C(=O)C(C(=O)Nc2cnc3ccccc3c2)=C1O` (stereo not shown) [3-29], the “corrected mortality, rating” value in the data set on Plutella xylostella is reported as “D or higher”.
Take `CCCN1C(=O)C(C(=O)Nc2ccc(F)cn2)=C(O)CC1c1ccc(C(F)(F)F)nc1` (stereo not shown) [1-31]: the “corrected mortality, rating” value (with Plutella xylostella; in the data set on Laodelphax striatellus; in data set [1]) was “D or higher” each time.
For `CN1C(=O)C(C(=S)Nc2ccc(C(F)(F)F)cc2)=C(O)CC1c1ccc(C(F)(F)F)cc1` (stereo not shown) [compound No. 1-9, 4-hydroxy-1-methyl-2-oxo-N, 6-bis(4-(trifluoromethyl)phenyl)-1,2,5,6-tetrahydropyridine-3-carbothioamide], the “corrected mortality, rating” value (in the data set with Plutella xylostella; in data set [1]) was “D or higher” throughout.
`CN1C(=O)C(C(=O)Nc2ccc(F)nc2)=C(O)CC1c1ccc(C(F)(F)F)cc1` (stereo not shown) [1-14]: the “corrected mortality, rating” value (with Plutella xylostella; in the data set on Laodelphax striatellus; in data set [1]) was “D or higher” in each case.
For the molecule `O=C1NCC(c2ccccc2C(F)(F)F)C(O)=C1C(=O)Nc1ccccc1F` (stereo not shown) [3-3], the “corrected mortality, rating” value in the data set on Plutella xylostella was “D or higher”.
